Publication PMC6213216, “AbeTx1 Is a Novel Sea Anemone Toxin with a Dual Mechanism of Action on Shaker-Type K^+ Channels Activation” (Marine Drugs, 2018)
Like-named read-outs stand apart in the source and are kept apart here. Positions of bridges follow the written chain, without caps; N, C: chain ends. Residues, ends and D or L forms follow the SMILES beside them.

Legend:
rKV1.6 = biological target: T1, rKV1.6 (Rattus norvegicus, UniProt P17659); experiment: Two-electrode voltage-clamp on Xenopus laevis oocytes expressing rKV1.6; assay type: cell-based
T1 construct: expressed in transfected cells; host or cells: Xenopus laevis oocytes injected with cRNA
T1 sequence (P17659 whole entry): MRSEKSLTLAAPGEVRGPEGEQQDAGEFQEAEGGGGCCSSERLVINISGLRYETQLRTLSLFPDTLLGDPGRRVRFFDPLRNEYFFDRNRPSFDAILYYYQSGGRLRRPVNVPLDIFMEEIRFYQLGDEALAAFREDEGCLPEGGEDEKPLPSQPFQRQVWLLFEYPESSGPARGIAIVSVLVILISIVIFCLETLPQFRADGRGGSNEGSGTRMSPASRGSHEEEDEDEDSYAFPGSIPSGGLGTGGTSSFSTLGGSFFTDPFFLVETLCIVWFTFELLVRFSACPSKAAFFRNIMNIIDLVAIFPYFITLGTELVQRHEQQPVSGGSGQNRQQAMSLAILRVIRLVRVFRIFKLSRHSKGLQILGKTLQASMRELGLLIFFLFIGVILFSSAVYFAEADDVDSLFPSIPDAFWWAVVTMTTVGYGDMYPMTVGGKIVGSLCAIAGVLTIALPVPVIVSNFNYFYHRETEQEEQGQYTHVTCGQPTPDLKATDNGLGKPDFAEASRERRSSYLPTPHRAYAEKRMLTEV
Procedure: (§1) The pharmacological effect of AbeTx1 was analyzed by heterologous expression of 12 voltage-gated potassium channels isoforms (rKV1.1, Genbank NM173095; rKV1.2, Genbank NM012970; hKV1.3, Genbank L23499; rKV1.4,Genbank NM012971; rKV1.5, Genbank NM012972; rKV1.6, Genbank NM575671; Shaker IR from Drosophila melanogaster, Genbank CG12348; rKV2.1, Genbank NM013186; hKV3.1, Genbank NM004976; rKV4.2, Genbank NM031730; rKV4.3, Genbank NM031739 and hERG, Genbank NM000238), and three voltage-gated sodium channel subtypes (rNaV1.2, Genbank NM012647; rNaV1.4, Genbank M26643 and BgNaV1.1, from Blattella germanica) (r, rat; h, human) in oocytes from Xenopus laevis. The linearized plasmids were transcribed using a T7 or SP6 mMESSAGE-mMACHINE transcription kit (Life Technologies, Austin, TX, USA). Oocytes were injected with 20–50 nL of cRNA at a concentration of 1 ng·nL^−1 using a microinjector (Drummond Scientific, Broomall, PA, USA). The oocytes were stored for 1–3 days at 16 °C until sufficient expression of voltage-gated ion channels was achieved. Oocytes were maintained in an ND96 solution (in mM: 96 NaCl, 2 KCl, 1.8 CaCl2, 2 MgCl2 and 5 HEPES; pH 7.4), supplemented with 50 µg·mL^−1 gentamicin sulfate.
(§2) Two-electrode voltage-clamp recordings were performed at room temperature (18–22 °C) using a Geneclamp 500 amplifier (Molecular Devices, Sunnyvale, CA, USA) controlled by a pClamp data acquisition system (Axon Instruments, Union City, CA, USA). ND96 was used as bath solution. Whole-cell currents from oocytes were recorded 1–3 days after injection. Voltage and current electrodes were filled with KCl (3 M). The resistance of both electrodes was kept between 0.8–1.0 MΩ. The elicited currents were filtered at 0.5 or 2 kHz using a four-pole low-pass Bessel filter. Leak subtraction was performed using a -P/4 protocol. KV1.1-KV1.6 and Shaker IR currents were evoked by 500 ms depolarization to 0 mV, followed by a 500 ms pulse to −50 mV, from a holding potential of −90 mV. KV2.1, KV3.1, KV4.2, and KV4.3 currents were elicited by 500 ms pulses to + 20 mV from a holding potential of −90 mV. Current traces of hERG channels were elicited by applying a +40 mV pulse for 2.5 s, followed by a step to −120 mV for 2.5 s. Sodium current traces were evoked by 100 ms depolarization steps from a holding potential of −90 mV to 0 mV. Concentration-response curves were constructed by adding different AbeTx1 or analogs concentrations directly to the bath solution. The percentage of the KV blockade was plotted against the logarithm of the applied concentrations and fitted with the Hill Equation (1):y = 100/[1 + (IC50/[toxin]) × h](1) where y is the amplitude of the toxin-induced effect, IC50 is the toxin concentration at half-maximal efficacy, [toxin] is the toxin concentration, and h is the Hill coefficient. To investigate the effects on the voltage dependence of activation, current traces were evoked by 10 mV depolarization steps from a holding potential of −90 mV. Data were normalized to the maximal K^+ current amplitude, plotted against prepulse potential, and fitted using the Boltzmann Equation (2):IK/Imax = [1 + (exp(Vg − V)/k] − 1(2) where Imax represents maximal potassium current (IK), Vg is the voltage corresponding to half-maximal current, and k is the slope factor. Each experimental data represents mean ± standard error of at least three oocytes (n ≥ 3) from different frogs. Effect of the toxin on current-voltage experiments was statistically examined by comparing the control condition and the presence of toxin using the Student’s paired t-test. P-values < 0.05 are considered to be statistically significant. Data were analyzed using Clampfit 10.4 (Molecular Devices, Sunnyvale, CA, USA) and Origin v8.1 software (Origin Lab, Northampton, MA, USA), under the institutional license of the University of São Paulo.

rKV1.1 = biological target: T2, rKV1.1 (Rattus norvegicus, UniProt P10499); experiment: Two-electrode voltage-clamp on Xenopus laevis oocytes expressing rKV1.1; assay type: cell-based
T2 construct: expressed in transfected cells; host or cells: Xenopus laevis oocytes injected with cRNA
T2 sequence (P10499 whole entry): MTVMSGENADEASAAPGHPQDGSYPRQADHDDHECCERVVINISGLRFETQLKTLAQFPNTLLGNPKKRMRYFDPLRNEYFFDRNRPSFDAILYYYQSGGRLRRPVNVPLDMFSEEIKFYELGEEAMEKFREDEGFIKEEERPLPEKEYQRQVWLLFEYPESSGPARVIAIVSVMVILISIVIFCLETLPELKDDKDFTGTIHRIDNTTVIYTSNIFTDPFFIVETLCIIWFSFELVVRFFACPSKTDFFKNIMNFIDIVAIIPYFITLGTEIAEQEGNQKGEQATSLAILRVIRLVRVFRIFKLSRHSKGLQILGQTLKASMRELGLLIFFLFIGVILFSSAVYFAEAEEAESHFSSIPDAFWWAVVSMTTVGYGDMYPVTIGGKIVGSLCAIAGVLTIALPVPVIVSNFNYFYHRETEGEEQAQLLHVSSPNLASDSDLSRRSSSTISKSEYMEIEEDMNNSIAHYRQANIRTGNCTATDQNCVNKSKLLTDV
Procedure: as §1, §2

[1] = concentration-response curve, percentage blocked current fitted with Hill equation, TEVC oocytes, 0 mV from −90 mV, mean ± SE, n ≥ 3, SEM, read-out: KV1.6 IC50
[2] = concentration-response curve, percentage blocked current fitted with Hill equation, TEVC oocytes, 0 mV from −90 mV, mean ± SE, n ≥ 3, SEM, read-out: KV1.1 IC50

SMILES	IC50 (rKV1.6; [1])	IC50 (rKV1.1; [2])	KV1.6 K+ currents reduced to (rKV1.6; 920 μM TEA alone in bath solution)	IC50 (rKV1.6; external TEA in bath solution, concentration stated as IC50, read-out: TEA IC50 on KV1.6)	KV1.1 current reduced to (rKV1.1; 200 μM TEA alone in bath solution)	IC50 (rKV1.1; external TEA in bath solution, concentration stated as IC50, read-out: TEA IC50 on KV1.1)
C[C@@H]1NC(=O)[C@@H](NC(=O)[C@@H](N)CCCNC(=N)N)CSSC[C@@H](C(=O)NCC(=O)O)NC(=O)[C@H](CC(N)=O)NC(=O)[C@@H]2CCCN2C(=O)[C@H](CCCCN)NC(=O)[C@@H]2CCCN2C(=O)[C@H](CCCNC(=N)N)NC(=O)[C@@H]2CSSC[C@H](NC(=O)[C@H]([C@@H](C)O)NC1=O)C(=O)N[C@@H](CO)C(=O)N[C@@H](CCCCN)C(=O)NCC(=O)N[C@@H](CCCNC(=N)N)C(=O)N2 [Lys3Ala] (H-RCATCSKGRCRPKPNCG-OH; disulfide 2-16, 5-10)	18.9 µM	27.5 µM	–	–	–	–
C[C@@H]1NC(=O)[C@H](CO)NC(=O)[C@@H]2CSSC[C@H](NC(=O)[C@H](CCCNC(=N)N)NC(=O)CNC1=O)C(=O)N[C@@H](CCCNC(=N)N)C(=O)N1CCC[C@H]1C(=O)N[C@@H](CCCCN)C(=O)N1CCC[C@H]1C(=O)N[C@@H](CC(N)=O)C(=O)N[C@H](C(=O)NCC(=O)O)CSSC[C@H](NC(=O)[C@@H](N)CCCNC(=N)N)C(=O)N[C@@H](CCCCN)C(=O)N[C@@H]([C@@H](C)O)C(=O)N2 [Lys7Ala] (H-RCKTCSAGRCRPKPNCG-OH; disulfide 2-16, 5-10)	0.852 ± 0.09 µM	17.8 µM	–	–	–	–
C[C@@H]1NC(=O)[C@@H]2CCCN2C(=O)[C@H](CCCNC(=N)N)NC(=O)[C@@H]2CSSC[C@H](NC(=O)[C@H]([C@@H](C)O)NC(=O)[C@H](CCCCN)NC(=O)[C@@H](NC(=O)[C@@H](N)CCCNC(=N)N)CSSC[C@@H](C(=O)NCC(=O)O)NC(=O)[C@H](CC(N)=O)NC(=O)[C@@H]3CCCN3C1=O)C(=O)N[C@@H](CO)C(=O)N[C@@H](CCCCN)C(=O)NCC(=O)N[C@@H](CCCNC(=N)N)C(=O)N2 [Lys13Ala] (H-RCKTCSKGRCRPAPNCG-OH; disulfide 2-16, 5-10)	1.08 µM	4.55 µM	–	–	–	–
CC[N+](CC)(CC)CC [TEA, tetraethylammonium, reference compound]	–	–	51.50 ± 0.65%	920 µM	52.20 ± 1.74%	200 µM
